From publication PMC3492248, “Src Kinase Regulation in Progressively Invasive Cancer” (PLoS ONE, 2012)
Where two headings read alike, the source gives them in different places. Where a SMILES comes first, the peptide text is derived from it. [ ]: non-standard residue; d: D form. The star is where a group is joined. 5FAM = O=C1OC2(c3ccc(O)cc3Oc3cc(O)ccc32)c2ccc(C(=O)*)cc21; Orn = NCCC[C@H](N)C(=O)O

Assay: Stability of Src peptide substrate 1 in prostate cell lysates
Format: in vitro ADME, human
Conditions: for % Remaining Parent / remaining at 1 h: M-PER lysis buffer, no ATP/Mg2+, 1 h; for remaining at 1 h: read-out: % Remaining Parent
Experimental: Peptides commonly suffer protease-catalyzed degradation in cells as well as in cell lysates. Consequently, prior to examining Src kinase-catalyzed phosphorylation of peptide 1 with lysates, we monitored the stability of the peptide as a function of time. Cells were lysed using Pierce’s M-PER mammalian lysis buffer and, in the absence of ATP and Mg^2+ (i.e. no observable kinase activity), the lysate was added to peptide 1. Only approximately 10% of the peptide is degraded after 1 h (Table S1). Since the phosphorylation rate is measured within 10 min of incubation (Fig. S1), the peptide is sufficiently stable for our needs.
Capillary electrophoresis was performed on a ProteomeLab PA800 system equipped with a laser-induced fluorescence (LIF) detector (Beckman Coulter). The LIF was excited using the 488 nm argon laser. A fused-silica capillary (30/20 cm total/effective length, 50/360 µm inner/outer diameter) was used for separation (Polymicro Technologies). Prior to installation, capillaries were pretreated with 0.1 M NaOH for 12 h, distilled water for 1 h, 0.1 M HCl for 6 h and water again for 12 h. The samples were hydrodynamically injected and separated at 25°C at a constant voltage of 12 kV. The running buffer was 100 mM Borate/100 mM SDS buffer at pH 7.7. Before each run, the capillary was rinsed with 0.1 M NaOH, distilled water, and then the running buffer for 2 min under 20 psi pressure. Data was collected and analyzed using 32 Karat Software (Version 8.0, Beckman Coulter).
All cell lines were acquired from ATCC and grown in a humidified incubator at 37°C with 5% CO2. PZ-HPV-7, RWPE1, WPE1-NA22, WPE1-NB14, WPE1-NB11 and WPE1-NB26 cell lines were cultured in Keratinocyte Serum Free Medium (K-SFM) supplied with 0.05 mg/mL bovine pituitary extract (BPE) and 5 ng/mL epidermal growth factor (EGF) (all provided as a kit from Invitrogen), and 1% penicillin/streptomycin (P/S; Invitrogen). CWR22Rv1 cells were cultured in RPMI-1640 medium (Invitrogen) supplemented with 10% heat-inactivated fetal bovine serum (HI-FBS, Invitrogen) and 1% P/S. DU145 cells were cultured in Eagle’s Minimum Essential Medium (EMEM, ATCC) supplemented with 10% HI-FBS and 1% P/S. PC3 cells were cultured in F-12K medium (ATCC) supplemented with 10% HI-FBS and 1% P/S. Cell lysates were prepared as follows: confluent cells were first trypsinized and collected into 15 mL tubes in the presence of FBS-containing buffer or medium and then washed (3X) with ice cold DPBS buffer. The cells were lysed using M-PER mammalian protein extraction reagent mixed with 5/100 (v/v) Halt protease and phosphatase inhibitor cocktail EDTA-free (Thermo Fisher Scientific) for 10 min at 4°C. Cell debris was removed by centrifuging samples at 14,000 x g for 10 min at 4°C. The total protein concentrations were determined using Dc Protein assay (Bio-Rad).
Cell Line % Remaining Parent

% Remaining Parent (DU145 cell lysate): 92.9 ± 0.5%
% Remaining Parent (PC3 cell lysate): 89.2 ± 2.2%
% Remaining Parent (WPE1-NA22 cell lysate): 92.4 ± 0.8%
% Remaining Parent (WPE1-NB14 cell lysate): 91.4 ± 1.2%
% Remaining Parent (WPE1-NB26 cell lysate): 91.0 ± 1.5%
metabolised at 1 h (human, prostate cell lysates, prostate cell lysate (M-PER mammalian lysis buffer), absence of ATP and Mg2+, after 1 h, read-out: peptide degraded): ~10%
remaining at 1 h (human, PZ-HPV-7 cell lysate): 92.4 ± 0.2%
remaining at 1 h (human, RWPE1 cell lysate): 91 ± 0.6%
remaining at 1 h (human, WPE1-NB11 cell lysate): 89.8 ± 1.5%
SMILES: CC[C@H](C)[C@H](NC(=O)[C@H](CCC(=O)O)NC(=O)[C@H](CCC(=O)O)NC(=O)[C@H](CCC(=O)O)NC(=O)[C@H](CCCNC(C)=O)NC(=O)c1ccc2c(c1)C(=O)OC21c2ccc(O)cc2Oc2cc(O)ccc21)C(=O)N[C@@H](Cc1ccc(O)cc1)C(=O)NCC(=O)N[C@@H](CCC(=O)O)C(=O)N[C@@H](Cc1ccccc1)C(=O)N[C@@H](CCCNC(C)=O)C(N)=O [peptide 1] (5FAM-[Orn](Ac)EEEIYGEF[Orn](Ac)-NH2)
